Source: paper PMC2572143, “Androgen Receptor Functional Analyses by High Throughput Imaging: Determination of Ligand, Cell Cycle, and Mutation-Specific Effects” (PLoS ONE, 2008)
Where a chain is given by its changes, count along the chain named. Where two headings read alike, the source gives them in different places.

Tests used:
[1] = target: T1, GFP-AR (wild type androgen receptor) (Homo sapiens, UniProt P10275); assay: HT imaging: pARR2PB-dsRED2skl transcriptional reporter gene activity (CORR2) in stable HeLa GFP-AR cells; format: cell-based; set-up: expressed in transfected cells
T1 sequence (P10275 1-920): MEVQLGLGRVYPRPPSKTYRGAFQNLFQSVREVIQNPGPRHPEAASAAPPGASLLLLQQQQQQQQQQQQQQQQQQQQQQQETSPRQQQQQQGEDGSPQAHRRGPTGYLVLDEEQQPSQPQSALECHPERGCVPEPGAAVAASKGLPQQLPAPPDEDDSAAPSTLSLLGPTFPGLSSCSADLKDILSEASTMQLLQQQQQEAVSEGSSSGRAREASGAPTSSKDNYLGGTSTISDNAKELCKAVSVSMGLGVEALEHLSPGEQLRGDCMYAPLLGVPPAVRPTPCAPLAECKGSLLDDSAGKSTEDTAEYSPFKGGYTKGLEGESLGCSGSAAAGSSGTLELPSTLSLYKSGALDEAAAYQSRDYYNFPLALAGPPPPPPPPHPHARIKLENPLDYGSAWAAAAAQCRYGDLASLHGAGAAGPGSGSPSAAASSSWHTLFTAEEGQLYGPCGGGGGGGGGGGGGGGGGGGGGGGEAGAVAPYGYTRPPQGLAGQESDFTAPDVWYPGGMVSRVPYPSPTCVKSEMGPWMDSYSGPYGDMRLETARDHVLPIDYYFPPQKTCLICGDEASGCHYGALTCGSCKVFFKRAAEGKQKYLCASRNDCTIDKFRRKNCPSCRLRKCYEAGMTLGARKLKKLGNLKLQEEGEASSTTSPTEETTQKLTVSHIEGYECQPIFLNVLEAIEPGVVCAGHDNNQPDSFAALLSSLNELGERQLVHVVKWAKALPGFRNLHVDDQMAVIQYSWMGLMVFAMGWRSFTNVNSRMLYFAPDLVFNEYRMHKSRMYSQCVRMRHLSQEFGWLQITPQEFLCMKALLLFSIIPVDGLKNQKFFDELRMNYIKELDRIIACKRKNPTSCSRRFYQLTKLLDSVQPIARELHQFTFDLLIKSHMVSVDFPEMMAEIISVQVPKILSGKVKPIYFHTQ
Source text: Cells were imaged in PBS.

[2] = target: T1, GFP-AR (wild type androgen receptor); assay: HT imaging: AR nuclear hyperspeckling (NVAR) in stable HeLa GFP-AR cells
Source text: (§1) In general, 49 images were captured per well for image analysis.

[3] = target: T1, GFP-AR (wild type androgen receptor); assay: HT imaging: AR nuclear translocation (FLIN) in stable HeLa GFP-AR cells
Source text: as §1

[4] = target: T2, GFP-AR T877A (LNCaP mutation) (Homo sapiens, UniProt P10275, T878A); assay: HT imaging multiplex assay, all measurements together, HeLa GFP-AR T877A; format: cell-based
T2 construct: expressed in transfected cells
T2 sequence (P10275 1-920 T878A): T1 sequence (P10275 1-920) with T878A

[5] = target: T3, GFP-AR F764L (AIS mutation) (Homo sapiens, UniProt P10275, F765L); assay: HT imaging multiplex assay, all three parameters together, HeLa GFP-AR F764L; format: cell-based; settings: read-out: maximal responses (three parameters), % of that observed with WT AR
T3 construct: expressed in transfected cells
T3 sequence (P10275 1-920 F765L): T1 sequence (P10275 1-920) with F765L

HeLa GFP-AR cells = assay: Cell cycle analysis by DNA content (DAPI)/EdU incorporation in unsynchronized cells; format: cell-based, human; settings: for EC50: Homo sapiens, HeLa, 18 h
Description: To perform these studies, we simplified the HCS cell cycle analysis techniques described by Gesparri et al. to a DNA content (DAPI)/EdU incorporation biparametric analysis to identify G1, S phase, and G2 cells in unsynchronized growing cells (Fig. 6A). Cells were prepared as normal except with a brief 30 minute exposure to 10 µM EdU, which will incorporate into newly synthesized DNA similar to BrdU, prior to fixation. During image analysis, total nuclear DAPI signal (DNA) and mean nuclear EdU signal from each cell was quantified and used to determine cell cycle.
For experiments in which cell cycle effects were determined, cells were labeled using an Invitrogen Click-iT cell cycle analysis kit using supplied protocols. Prior to fixation, cells were exposed to 10 µM EdU for 30 minutes. Cells with EdU incorporation were labeled by an EdU specific antibody conjugated to an A647 florescent marker. Because the Click-iT labeling decreases GFP signal intensity, AR was labeled using an Anti-AR antibody (Dr. Nancy Weigel) and A488 secondary antibody (Molecular Probes).

[6] = target: T1, GFP-AR (wild type androgen receptor); assay: HT imaging multiplex assay, all three parameters together (FLIN, NVAR, CORR2), HeLa GFP-AR
Source text: as §1

## CC(C)=CC(=O)O[C@H]1Cc2cc3ccc(=O)oc3cc2OC1(C)C [Decursin]
[1]
  IC50: 10.6 ± 0.865 µM
[1]; with 10 nM R1881
  decrease in transcriptional reporter gene activity (dsRED2skl reporter signal): 45%
[2]
  IC50: 12.3 ± 0.43 µM
[2]; with 10 nM R1881
  reduction/loss of agonist-induced hyperspeckling (NVAR): 94%
[3]
  EC50: 0.853 ± 0.0884 µM
  IC50: 13.2 ± 0.152 µM
[3]; with 10 nM R1881
  decrease in R1881-induced nuclear translocation: 95%

## C[C@@H]1CC2=CC(=O)CC[C@@H]2[C@H]2CC[C@@]3(C)[C@@H](CC[C@]3(C)O)[C@@H]21 [Mibolerone, mibolerone]
[4]; compound alone
  difference of results from those observed with WT-AR: ≤ 1%
[5]
  Emax: 85 to 105%

## CC(C)(O)C(=O)Nc1ccc([N+](=O)[O-])c(C(F)(F)F)c1 [OHF, o-hydroxyflutamide]
[4]; compound alone
  concentration at which agonist effect / activation of the T877A mutant is observed: 75 to 85 nM
[1]; compound alone
  induction of transcriptional reporter gene activity (in words): no significant hyperspeckling or induction of transcription
[2]; compound alone
  induction of nuclear hyperspeckling (in words): no significant hyperspeckling
HeLa GFP-AR cells; 18 hr treatment
  effect on the cell cycle (in words): did not have any appreciable effect on the cell cycle

## CC(C)(C)CC(C)(C)c1ccc(O)cc1 [Octophenol]
[6]; compound alone
  response on any of the three parameters measured (in words): did not yield a significant response
[6]; with 10 nM R1881 (competition)
  response on any of the three parameters / AR antagonistic activity (in words): did not yield a significant response

## C[C@]1(O)CC[C@H]2[C@@H]3CCC4=CC(=O)CCC4=C3C=C[C@@]21C [R1881, Methyltrienolone]
[4]
  difference of results from those observed with WT-AR: ≤ 1%
[5]
  Emax: 40 to 60%
HeLa GFP-AR cells; 100 nM, untreated control 42.6
  S % (I + II): 0.7%
HeLa GFP-AR cells; read-out: EC50 of G1/S block
  EC50: 0.1 ± 0.03 nM
HeLa GFP-AR cells; read-out: EC50 of reduction in S-phase cells
  EC50: 0.07 ± 0.02 nM
[3]
  cells with a majority of the GFP signal in the nucleus: 95–97%
  more AR in the nucleus in G2 cells compared to G1 cells: 8–12%
  time AR distribution remained nuclear after ligand pulse: up to 15 hr
[6]; FLIN, NVAR, CORR2, titration 10−6 M to 10−11 M
  concentration at which saturation of response is observed: ≈ 100 nM
